According to patent publication US20060154243A1 (priority 2003, published 2006):

Columns and labels:
[1] = test system: rabbit serum obtained by immunizing with SARS-CoV strain Frankfurt 1; type: binding
[2] = test system: sera SARS-green, SARS-yellow, 1a, 1b, 2, 6, 37, 62 and London; type: binding, human
two control sera = type: binding, human
[3] = test system: serum 1a (individual 1, early serum); type: binding, human
[4] = test system: serum 1b (individual 1, late serum); type: binding, human
serum 2 (individual 2) = type: binding, human
serum 6 (individual 6) = type: binding, human
serum 37 (individual 37) = type: binding, human
serum 62 (individual 62) = type: binding, human
serum London = type: binding, human
serum SARS-yellow = type: binding, human
serum SARS-green = type: binding, human
[5] = test system: control serum LUMC (pooled serum of ten healthy hospital workers); type: binding, human
[6] = test system: control serum Blood-bank (commercial negative donor pooled serum); type: binding, human

| Sequence | Rabbit serum linear peptides [1] | Rabbit serum looped peptides [1] | Recognition of the peptide by sera of individuals infected by SARS-CoV, form recognized [2] | Recognition by at least one of the control sera (two control sera) | other results |
| --- | --- | --- | --- | --- | --- |
| CTVVQRCASNKPHVL | 1.7 | 1.0 | recognized in linear and in looped form | recognized by at least one of the control sera |  |
| ICTVVQRCASNKPHV | 0.3 | 0.4 | recognized in linear and in looped form | recognized by at least one of the control sera |  |
| NVVPPALHLVDPQIQ | 0.1 | 0.5 | recognized in linear and in looped form | recognized by at least one of the control sera |  |
| TNVVPPALHLVDPQI | 0.1 | 0.5 | recognized in linear and in looped form | recognized by at least one of the control sera |  |
| TVVQRCASNKPHVLE | 0.7 | 0.3 | recognized in linear and in looped form | recognized by at least one of the control sera |  |
| VPPALHLVDPQIQLT | 1.0 | 0.4 | recognized in linear and in looped form | recognized by at least one of the control sera |  |
| VVPPALHLVDPQIQL | 1.2 | 0.4 | recognized in linear and in looped form | recognized by at least one of the control sera |  |
| YNFLKEQHCQKASTQ |  |  | recognized in looped form |  | Binding of serum 1a to linear peptides of Orf14 of SARS-CoV TOR2 [3]: 0.5; Binding of serum 1b to linear peptides of Orf14 of SARS-CoV TOR2 [4]: 0.4; Binding of serum 2 to linear peptides of Orf14 of SARS-CoV TOR2 (serum 2 (individual 2)): 0.5; Binding of serum 6 to linear peptides of Orf14 of SARS-CoV TOR2 (serum 6 (individual 6)): 0.5; Binding of serum 37 to linear peptides of Orf14 of SARS-CoV TOR2 (serum 37 (individual 37)): 0.6; Binding of serum 62 to linear peptides of Orf14 of SARS-CoV TOR2 (serum 62 (individual 62)): 0.5; Binding of serum London to linear peptides of Orf14 of SARS-CoV TOR2 (serum London): 0.7; Binding of serum SARS-yellow to linear peptides of Orf14 of SARS-CoV TOR2 (serum SARS-yellow): 0.3; Binding of serum SARS-green to linear peptides of Orf14 of SARS-CoV TOR2 (serum SARS-green): 0.5; Control serum LUMC linear peptides [5]: 0.5; Control serum LUMC looped peptides [5]: 0.5; Control Serum Blood-Bank Looped peptides [6]: 0.7; Control serum Blood-bank linear peptides [6]: 0.5 |
